SMILES strings stand for the structures.

This note sets out measurements from ChEMBL document CHEMBL4699560, “Synthesis and Stereochemical Assignment of Conioidine A: DNA- and HSA-Binding Studies of the Four Diastereomers” (J Nat Prod, 2020).

Series [1] concerns Calf thymus DNA. In words: Displacement of EtBr from calf thymus DNA incubated for 3 mins by fluorescence based assay. In kind it is tissue-based. To be noted: Bos taurus.
The target of series [2] is T1, Albumin (Homo sapiens, UniProt P02768). In words: Binding affinity to human serum albumin […]. The format is ADME, cell-free. Background: ITC needs no label: the signal is the heat of the interaction.
T1 sequence (P02768 whole entry): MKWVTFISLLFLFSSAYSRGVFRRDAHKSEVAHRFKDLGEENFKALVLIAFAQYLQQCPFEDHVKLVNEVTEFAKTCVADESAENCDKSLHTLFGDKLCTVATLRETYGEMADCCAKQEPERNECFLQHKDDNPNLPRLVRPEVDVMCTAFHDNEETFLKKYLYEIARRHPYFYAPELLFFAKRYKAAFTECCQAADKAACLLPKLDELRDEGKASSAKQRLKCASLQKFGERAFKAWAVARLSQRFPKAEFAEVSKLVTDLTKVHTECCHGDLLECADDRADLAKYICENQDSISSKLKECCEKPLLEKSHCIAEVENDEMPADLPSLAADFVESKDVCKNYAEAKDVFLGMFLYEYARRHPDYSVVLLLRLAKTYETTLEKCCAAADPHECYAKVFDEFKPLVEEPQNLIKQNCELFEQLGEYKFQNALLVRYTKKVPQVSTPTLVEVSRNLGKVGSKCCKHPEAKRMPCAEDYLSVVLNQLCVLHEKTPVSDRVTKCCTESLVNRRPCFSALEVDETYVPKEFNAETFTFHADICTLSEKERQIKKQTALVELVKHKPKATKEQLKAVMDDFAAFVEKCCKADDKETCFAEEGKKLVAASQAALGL
The target of series [3] is T1, Albumin. Nature of the series: Binding affinity to human serum albumin assessed as quenching constant by Stern-Volmer plot analysis. In kind it is ADME, cell-free.
The test system of series [4] is Calf thymus DNA. In words: Displacement of EtBr from calf thymus DNA assessed per base pair incubated for 3 mins by fluorescence based assay. In kind it is tissue-based. To be noted: Bos taurus.
Series [5] relates to Calf thymus DNA. In words: Binding affinity to calf thymus DNA assessed as change in melting temperature at DNA to ligand ratio at 40:1 by spectrophotometric method. The format is tissue-based. To be noted: Bos taurus.
The test system of series [6] is Calf thymus DNA. Nature of the series: Displacement of EtBr from calf thymus DNA at 50 uM incubated for 3 mins by fluorescence based assay relative to control. The format is tissue-based. As to conditions: Bos taurus.

In the case of `C/C=C(\C)C(=O)O[C@@H](C)C[C@H]1CCCN1C(=O)CCCCCCCCC`, in the series with Calf thymus DNA [1], the C50 worked out at 340 µM. In addition, the Kb on Albumin [2] is given as 16 10^4/M. In addition, the KSV on Albumin [3] was 1.3 10^5/M.
Consider `Cn1cc(NC(=O)c2cc(NC(=O)CNC(=N)N)cn2C)cc1C(=O)NCCC(=N)N`, for which, in the series on Calf thymus DNA [1], the C50 worked out at 10 µM. In the series on Calf thymus DNA [4], the Kapp is 5.1 10^6/M. The ΔTm – broadly, the shift of the melting midpoint relative to a reference – with Calf thymus DNA [5] was found to be 0.7 °C.
`OC[C@H]1O[C@H](O)[C@H](O)[C@@H](O)[C@@H]1O` yielded a C50 in the series with Calf thymus DNA [1] of 390 µM. The thermal shift (ΔTm) in the series with Calf thymus DNA [5] was found to be 10.3 °C.
`C/C=C(\C)C(=O)O[C@@H](C)C[C@@H]1CCCN1C(=O)CCCCCCCCC` returned a C50 in the series with Calf thymus DNA [1] of 470 µM. At Albumin [2], the Kb is given as 7.2 10^4/M. For the same compound, at Albumin [3], the KSV is 3 10^4/M.
For `C/C=C(\C)C(=O)O[C@H](C)C[C@@H]1CCCN1C(=O)CCCCCCCCC` the same measures were 380 µM, 5.9 10^4/M and 3 10^4/M.
The compound `C/C=C(\C)C(=O)O[C@H](C)C[C@H]1CCCN1C(=O)CCCCCCCCC` came in with a C50 in the series on Calf thymus DNA [1] of 480 µM. Besides, the Kapp in the series with Calf thymus DNA [4] was 1.8 10^5/M. Also, at Albumin [2], the Kb is recorded as 6.4 10^4/M. Further, the KSV at Albumin [3] is 7.2 10^5/M. This compound also had an Activity in the series on Calf thymus DNA [6] of 93%.
